According to US6544984B1, “2,3,4,5-tetrahydro-1H-(1,4)benzodiazepine-3-hydroxamic acids” (American Cyanamid Company, priority 1999, dated 2003):
Where two headings read alike, the source gives them in different places.

Tests used:
MMP-1 = target: T1, MMP-1 (Homo sapiens, UniProt P03956); assay: In vitro collagenase assay (fluorogenic peptide substrate); type: biochemical; conditions: human recombinant fibroblast collagenase
T1 construct: human recombinant fibroblast collagenase (truncated, mw=18,828)
T1 sequence (P03956 100-269 limits assumed): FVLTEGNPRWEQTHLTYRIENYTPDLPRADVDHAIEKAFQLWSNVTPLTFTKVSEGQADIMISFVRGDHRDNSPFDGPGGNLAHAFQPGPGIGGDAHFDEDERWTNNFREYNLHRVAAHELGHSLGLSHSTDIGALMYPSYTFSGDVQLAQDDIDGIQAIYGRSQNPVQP
From the text: In Vitro Collagenase Assay
This assay was based on the cleavage of a peptide substrate ((Dnp-Pro-Cha-Gly-Cys(Me)-His-Ala-Lys(NMa)-NH2), available from Peptide International, Inc.) by collagenase releasing the fluorescent NMa group which was quantitated on the fluorometer as disclosed in Bickett et al., “A High Throughput Fluorogenic Substrate for Interstitial Collagenase (MMP-1) and Gelatinase (MMP-9)”, Anal. Biochem., 212:58-64, (1993). Dnp quenches the NMa fluorescence in the intact substrate.
The assay was run in HCBC assay buffer (50 mM HEPES, pH 7.0, 5 mM Ca^+2, 0.02% Brij, 0.5% Cysteine), with human recombinant fibroblast collagenase (truncated, mw=18,828, from Wyeth-Ayerst Research, Radnor, Pa.). The substrate was dissolved in methanol and stored frozen in 1 mM aliquots. Collagenase was stored frozen in buffer in 25 μM aliquots. In conducting the assay, the substrate was dissolved in HCBC buffer to a final concentration of 10 μM and collagenase to a final concentration of 5 nM. The compounds being examined were dissolved in methanol, DMSO, or HCBC. The methanol and DMSO were diluted in HCBC to <1.0%. The compounds were added to a 96 well plate containing enzyme and the reaction was started by the addition of substrate.
(§1) The reaction was read (excitation 340 nm, emission 444 nm) for 10 min. and the increase in fluorescence over time was plotted as a linear line. The slope of the line was calculated representing the reaction rate. The linearity of the reaction rate was confirmed (r^2>0.85). The mean (x±sem) of the control rate was calculated and compared for statistical significance (p<0.05) with drug-treated rates using Dunnett's multiple comparison test.

TACE = target: T2, TACE (Homo sapiens, UniProt P78536); assay: Procedure for measuring TACE inhibition (fluorescent peptidyl substrate); type: biochemical
T2 construct: purchased Immunex
Procedure: Procedure for Measuring TACE Inhibition
The plates were incubated for 10 minutes at room temperature. The reaction was initiated by addition of a fluorescent peptidyl substrate (final concentration 100 μM) to each well with shaking on a shaker for 5 sec.
as §1, with “420” for “444”, “and this represents” for “representing”, “The linearity of the reaction rate was confirmed (r^2>0.85).” left out

MMP-13 = MMP-13 (Homo sapiens, UniProt P45452); assay: MMP-13 inhibition; type: biochemical
MMP-9 = target: T3, MMP-9 (Homo sapiens, UniProt P14780); assay: In vitro gelatinase assay (thiopeptide substrate, DTNB); type: biochemical; conditions: human neutrophil gelatinase B
T3 construct: human neutrophil gelatinase B; from tissue; host or cells: human neutrophils
Procedure: In Vitro Gelatinase Assay
The assay is based on the cleavage of the thiopeptide substrate ((Ac-Pro-Leu-Gly(2-mercapto-4-methyl-pentanoyl)-Leu-Gly-OEt), available from Bachem Bioscience) by the enzyme gelatinase, releasing the substrate product which reacts calorimetrically with DTNB ((5,5′-dithio-bis(2-nitro-benzoic acid)). This assay is disclosed in Weingarten et al., “Spectrophotometric Assay for Vertebrate Collegenase”, Anal. Biochem., 147:437-440, (1985). The enzyme activity is measured by the rate of the color increase.
The thiopeptide substrate was made up fresh as a 20 mM stock in 100% DMSO and the DTNB was dissolved in 100% DMSO as a 100 mM stock and stored in the dark at room temperature. The substrate and the DTNB were diluted together to 1 mM with substrate buffer (50 mM HEPES, pH 7.5, 5 mM CaCl2) before use. The stock of human neutrophil gelatinase B was diluted with assay buffer (50 mM HEPES, pH 7.5, 5 mM CaCl2, 0.02% Brij) to a final concentration of 0.15 nM.
The assay buffer, enzyme, DTNB/substrate (500 μM final concentration) and vehicle or inhibitor were added to a 96 well plate (total reaction volume of 200 μl) and the increase in color was monitored spectrophotometrically for 5 minutes at 405 nm on a plate reader.
The increase in OD405 was plotted and the slope of the line was calculated. The slope represents the reaction rate. The linearity of the reaction rate was confirmed (r^2>0.85) and the mean (x±sem) of the control rate was calculated and compared for statistical significance (p<0.05) with drug-treated rates using Dunnett's multiple comparison test.

T2 sequence (P78536 215-824): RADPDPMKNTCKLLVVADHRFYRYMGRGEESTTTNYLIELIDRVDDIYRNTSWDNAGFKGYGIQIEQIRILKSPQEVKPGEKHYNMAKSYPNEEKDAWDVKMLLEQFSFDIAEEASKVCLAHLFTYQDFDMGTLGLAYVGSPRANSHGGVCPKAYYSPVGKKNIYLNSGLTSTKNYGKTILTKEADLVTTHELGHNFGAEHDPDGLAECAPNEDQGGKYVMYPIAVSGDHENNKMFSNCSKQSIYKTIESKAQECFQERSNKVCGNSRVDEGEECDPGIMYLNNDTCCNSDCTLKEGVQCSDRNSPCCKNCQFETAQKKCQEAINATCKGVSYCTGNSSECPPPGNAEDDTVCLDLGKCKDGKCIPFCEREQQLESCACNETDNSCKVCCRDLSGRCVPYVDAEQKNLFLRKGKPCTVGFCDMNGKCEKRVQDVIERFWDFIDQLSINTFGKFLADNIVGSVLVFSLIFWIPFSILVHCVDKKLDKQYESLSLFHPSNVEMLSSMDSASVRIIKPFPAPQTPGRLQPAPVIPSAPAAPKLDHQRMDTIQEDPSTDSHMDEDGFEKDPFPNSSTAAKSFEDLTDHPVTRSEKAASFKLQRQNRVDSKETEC
T3 sequence (P14780 94-707): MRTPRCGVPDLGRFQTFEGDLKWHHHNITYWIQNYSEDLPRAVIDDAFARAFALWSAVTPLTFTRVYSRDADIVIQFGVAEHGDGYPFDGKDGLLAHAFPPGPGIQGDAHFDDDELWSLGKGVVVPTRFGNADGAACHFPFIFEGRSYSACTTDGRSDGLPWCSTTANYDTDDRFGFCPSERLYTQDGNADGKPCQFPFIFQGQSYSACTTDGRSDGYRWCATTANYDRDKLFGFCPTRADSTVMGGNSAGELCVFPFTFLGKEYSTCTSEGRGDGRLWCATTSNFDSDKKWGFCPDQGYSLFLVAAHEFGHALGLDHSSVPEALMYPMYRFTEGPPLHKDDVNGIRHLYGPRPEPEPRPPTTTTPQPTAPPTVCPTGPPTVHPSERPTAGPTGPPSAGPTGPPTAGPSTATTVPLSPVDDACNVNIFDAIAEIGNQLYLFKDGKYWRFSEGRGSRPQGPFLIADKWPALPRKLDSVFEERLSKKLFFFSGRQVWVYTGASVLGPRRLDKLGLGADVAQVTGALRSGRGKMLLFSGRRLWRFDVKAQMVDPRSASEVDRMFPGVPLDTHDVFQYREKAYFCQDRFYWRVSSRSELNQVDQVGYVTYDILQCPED

| IC50 (MMP-1) | IC50 (MMP-13; read-out: IC50 (nM) MMP-13) | IC50 (MMP-9) | IC50 (TACE) | IC50 (MMP-13) | melting point | Structure (SMILES) | IC50 (TACE; read-out: IC50 (nM) TACE) |
| --- | --- | --- | --- | --- | --- | --- | --- |
| 250 nM | 8 nM | 24 nM |  |  |  | CC#CCOc1ccc(S(=O)(=O)N2Cc3ccccc3N(C(=O)c3cccs3)CC2C(=O)NO)cc1 (centres unmarked) [Example 2, 4-(4-But-2-ynyloxybenzenesulfonyl)-1-(2-thienylcarbonyl)-2,3,4,5-tetrahydro-1H-[1,4]benzodiazepine-3-carboxylic acid, hydroxyamide] | 38 nM |
|  | 10 nM |  |  |  |  | CC#CCOc1ccc(S(=O)(=O)N2Cc3ccccc3N(C(=O)c3ccccc3)CC2C(=O)NO)cc1 (centres unmarked) [Example 3, 1-Benzoyl-4-(4-but-2-ynyloxybenzenesulfonyl)-2,3,4,5-tetrahydro-1H-[1,4]-benzodiazepine-3-carboxylic acid, hydroxyamide] |  |
| 125 nM |  | 2 nM | 33 nM | 7 nM | 119 to 120 °C | CC#CCOc1ccc(S(=O)(=O)N2Cc3ccccc3N(C(=O)c3ccco3)CC2C(=O)NO)cc1 (centres unmarked) [Example 57, 4-(4-But-2-ynyloxybenzenesulfonyl)-1-(2-furanylcarbonyl)-2,3,4,5-tetrahydro-1H-[1,4]benzodiazepine-3-carboxylic acid hydroxyamide] |  |
| 841 nM | 29 nM | 33 nM |  |  |  | CC#CCOc1ccc(S(=O)(=O)N2Cc3ccccc3N(C(=O)C3CC3)CC2C(=O)NO)cc1 (centres unmarked) [Example 58, 1-Cyclopropylcarbonyl-4-(4-but-ynyloxybenzenesulfonyl)-2,3,4,5-tetrahydro-1H-[1,4]benzodiazepine-3-carboxylic acid, hydorxyamide] |  |

| Structure (SMILES) | IC50 (MMP-1) | IC50 (MMP-13; read-out: IC50 (nM) MMP-13) | IC50 (MMP-9) | IC50 (TACE) | IC50 (MMP-13) | melting point | IC50 (TACE; read-out: IC50 (nM) TACE) |
| --- | --- | --- | --- | --- | --- | --- | --- |
| CC#CCOc1ccc(S(=O)(=O)N2Cc3ccccc3N(C(C)=O)CC2C(=O)NO)cc1 (centres unmarked) [Example 1, 1-Acetyl-4-(4-but-2-ynyloxbenzenesulfonyl)-2,3,4,5-tetrahydro-1H-[1,4]benzodiazepine-3-carboxylic acid, hydroxyamide] | 835 nM | 77 nM | 228 nM |  |  |  | 16 nM |
